Data taken from BindingDB's records for patent US20250011332 (Soter Biopharma, 2025).

How the values were obtained:
[1] = biological target: Tyrosine-protein kinase JAK1 (Homo sapiens, UniProt P23458); test: Jak1 Kinase Activity Test In Vitro
Description: JAK1(h) was incubated with 20 mM Tris/HCl pH 7.5, 0.2 mM EDTA, 500 μM MGEEPLYWSFPAKKK (SEQ ID NO: 1), 10 mM magnesium acetate and [γ-33P]-ATP (activity and concentration were determined as required). The reaction was started by adding the Mg/ATP mixture, and after incubation at room temperature for 40 min, the reaction was terminated by adding 0.5% phosphoric acid. Then 10 μL of the reaction product was spotted on a P30 filter pad which was washed three times with 0.425% phosphoric acid and once with methanol within 4 min, dried, and subjected to scintillation counting.

[2] = biological target: T1, Tyrosine-protein kinase JAK3 (Homo sapiens, UniProt P52333); test: Jak3 Kinase Activity Test In Vitro
T1 sequence (P52333 whole entry): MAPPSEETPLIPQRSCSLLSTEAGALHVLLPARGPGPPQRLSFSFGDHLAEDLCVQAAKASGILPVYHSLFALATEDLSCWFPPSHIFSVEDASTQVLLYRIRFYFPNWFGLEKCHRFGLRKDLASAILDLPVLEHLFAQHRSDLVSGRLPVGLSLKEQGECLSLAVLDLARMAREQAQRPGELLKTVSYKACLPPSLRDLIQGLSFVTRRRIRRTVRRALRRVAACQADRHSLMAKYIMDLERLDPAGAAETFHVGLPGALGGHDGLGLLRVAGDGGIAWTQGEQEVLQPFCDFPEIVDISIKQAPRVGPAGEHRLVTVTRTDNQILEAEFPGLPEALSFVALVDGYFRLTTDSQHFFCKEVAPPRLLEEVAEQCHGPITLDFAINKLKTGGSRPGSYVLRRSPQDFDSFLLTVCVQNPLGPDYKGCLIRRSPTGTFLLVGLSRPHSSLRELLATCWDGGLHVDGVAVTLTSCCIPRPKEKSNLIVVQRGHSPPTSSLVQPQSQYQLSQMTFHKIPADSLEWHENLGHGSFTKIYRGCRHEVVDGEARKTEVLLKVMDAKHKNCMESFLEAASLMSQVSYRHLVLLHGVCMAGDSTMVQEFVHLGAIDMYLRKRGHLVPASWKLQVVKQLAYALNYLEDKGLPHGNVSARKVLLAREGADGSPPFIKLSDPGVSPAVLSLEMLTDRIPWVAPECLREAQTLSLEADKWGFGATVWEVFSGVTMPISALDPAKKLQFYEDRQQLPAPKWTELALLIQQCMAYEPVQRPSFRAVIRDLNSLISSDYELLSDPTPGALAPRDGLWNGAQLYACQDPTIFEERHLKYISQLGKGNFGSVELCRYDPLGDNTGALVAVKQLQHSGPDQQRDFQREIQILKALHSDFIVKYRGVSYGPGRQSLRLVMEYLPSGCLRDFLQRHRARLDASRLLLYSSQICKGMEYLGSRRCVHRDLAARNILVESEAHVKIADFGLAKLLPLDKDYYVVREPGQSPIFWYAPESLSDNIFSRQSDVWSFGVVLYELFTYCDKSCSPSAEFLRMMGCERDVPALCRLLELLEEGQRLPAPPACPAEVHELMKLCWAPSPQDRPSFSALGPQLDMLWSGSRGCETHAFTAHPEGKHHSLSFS
Description: (§1) JAK3(h) was incubated with 8 mM MOPS pH 7.0, 0.2 mM EDTA, 500 μM GGEEEEYFELVKKKK (SEQ ID NO: 3), 10 mM magnesium acetate, and [γ-33P]-ATP (activity and concentration were determined as required). The reaction was started by adding the Mg/ATP mixture, and after incubation at room temperature for 40 min, the reaction was terminated by adding 0.5% phosphoric acid. Then 10 μL of the reaction product was spotted on a P30 filter pad which was washed three times with 0.425% phosphoric acid and once with methanol within 4 min, dried, and subjected to scintillation counting.

[3] = biological target: Non-receptor tyrosine-protein kinase TYK2 (Homo sapiens, UniProt P29597); test: TYK2 Kinase Activity Test In Vitro
Sequence of Non-receptor tyrosine-protein kinase TYK2 (P29597 whole entry): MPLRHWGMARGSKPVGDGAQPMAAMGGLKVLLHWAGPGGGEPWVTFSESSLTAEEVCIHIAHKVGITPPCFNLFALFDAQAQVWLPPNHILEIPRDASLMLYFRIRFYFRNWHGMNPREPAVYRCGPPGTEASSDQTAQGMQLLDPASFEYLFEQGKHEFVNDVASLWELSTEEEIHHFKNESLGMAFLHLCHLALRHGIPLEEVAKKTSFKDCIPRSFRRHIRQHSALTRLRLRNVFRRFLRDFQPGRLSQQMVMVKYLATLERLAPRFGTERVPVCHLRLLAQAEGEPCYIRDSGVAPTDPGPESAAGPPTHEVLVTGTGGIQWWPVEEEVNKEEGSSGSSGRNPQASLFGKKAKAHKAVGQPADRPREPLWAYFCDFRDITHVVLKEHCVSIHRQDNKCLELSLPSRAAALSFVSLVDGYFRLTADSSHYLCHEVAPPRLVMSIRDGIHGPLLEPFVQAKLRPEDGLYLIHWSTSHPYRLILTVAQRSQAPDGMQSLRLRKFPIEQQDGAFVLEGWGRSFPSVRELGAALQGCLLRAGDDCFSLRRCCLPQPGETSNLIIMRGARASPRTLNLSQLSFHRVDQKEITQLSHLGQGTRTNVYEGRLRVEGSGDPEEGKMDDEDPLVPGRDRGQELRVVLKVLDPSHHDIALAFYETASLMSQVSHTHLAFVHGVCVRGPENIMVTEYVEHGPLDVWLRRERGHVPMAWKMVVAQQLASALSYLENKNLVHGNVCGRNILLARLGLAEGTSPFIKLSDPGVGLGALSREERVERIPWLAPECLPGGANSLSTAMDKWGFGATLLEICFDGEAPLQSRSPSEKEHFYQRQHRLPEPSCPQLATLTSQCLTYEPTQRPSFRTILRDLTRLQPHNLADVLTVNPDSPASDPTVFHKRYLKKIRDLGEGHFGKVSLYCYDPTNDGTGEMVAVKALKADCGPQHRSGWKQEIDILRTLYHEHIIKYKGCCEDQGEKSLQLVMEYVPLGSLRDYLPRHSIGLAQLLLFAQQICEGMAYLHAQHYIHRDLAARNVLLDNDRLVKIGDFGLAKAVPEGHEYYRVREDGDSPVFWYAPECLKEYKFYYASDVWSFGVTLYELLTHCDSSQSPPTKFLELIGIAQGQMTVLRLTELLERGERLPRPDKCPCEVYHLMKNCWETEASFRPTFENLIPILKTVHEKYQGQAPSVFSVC
Description: as §1, with “TYK2(h)” for “JAK3(h)”, “250” for “500”, “GGMEDIYFEFMGGKKK” for “GGEEEEYFELVKKKK”, “4),” for “3),”

[4] = biological target: Tyrosine-protein kinase JAK2 (Homo sapiens, UniProt O60674); test: Jak2 Kinase Activity Test In Vitro
Sequence of Tyrosine-protein kinase JAK2 (O60674 whole entry): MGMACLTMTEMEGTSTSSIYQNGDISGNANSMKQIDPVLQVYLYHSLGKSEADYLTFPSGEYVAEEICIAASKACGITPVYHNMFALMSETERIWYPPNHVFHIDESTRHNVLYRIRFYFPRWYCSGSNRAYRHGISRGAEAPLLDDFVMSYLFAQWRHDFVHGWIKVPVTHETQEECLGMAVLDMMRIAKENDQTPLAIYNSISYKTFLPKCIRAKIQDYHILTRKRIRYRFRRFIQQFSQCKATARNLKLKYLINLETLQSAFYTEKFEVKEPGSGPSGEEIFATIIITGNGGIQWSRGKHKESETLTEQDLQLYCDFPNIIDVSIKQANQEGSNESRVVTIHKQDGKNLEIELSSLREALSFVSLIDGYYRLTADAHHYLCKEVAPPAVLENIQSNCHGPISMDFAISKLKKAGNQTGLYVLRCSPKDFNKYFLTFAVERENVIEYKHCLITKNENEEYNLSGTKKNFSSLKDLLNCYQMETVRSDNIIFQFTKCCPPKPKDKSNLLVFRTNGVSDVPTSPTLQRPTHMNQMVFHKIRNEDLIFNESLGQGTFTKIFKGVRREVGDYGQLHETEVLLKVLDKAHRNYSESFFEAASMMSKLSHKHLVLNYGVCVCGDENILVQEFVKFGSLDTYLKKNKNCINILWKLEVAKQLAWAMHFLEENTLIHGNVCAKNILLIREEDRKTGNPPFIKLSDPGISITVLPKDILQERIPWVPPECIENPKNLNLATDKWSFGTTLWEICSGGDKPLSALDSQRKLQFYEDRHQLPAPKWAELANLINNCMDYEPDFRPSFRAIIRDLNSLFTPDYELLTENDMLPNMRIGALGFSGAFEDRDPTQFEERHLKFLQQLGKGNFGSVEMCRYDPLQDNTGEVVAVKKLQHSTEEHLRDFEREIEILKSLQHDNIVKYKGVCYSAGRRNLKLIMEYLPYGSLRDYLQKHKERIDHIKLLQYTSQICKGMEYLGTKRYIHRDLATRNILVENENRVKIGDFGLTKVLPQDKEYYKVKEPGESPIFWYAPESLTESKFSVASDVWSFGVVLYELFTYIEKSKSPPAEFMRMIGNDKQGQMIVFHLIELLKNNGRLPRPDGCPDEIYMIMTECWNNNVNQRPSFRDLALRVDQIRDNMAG
Description: as §1, with “JAK2(h)” for “JAK3(h)”, “100” for “500”, “GGEEEEYFELVKKKK” left out, “2),” for “3),”

Sequence of Tyrosine-protein kinase JAK1 (P23458 whole entry): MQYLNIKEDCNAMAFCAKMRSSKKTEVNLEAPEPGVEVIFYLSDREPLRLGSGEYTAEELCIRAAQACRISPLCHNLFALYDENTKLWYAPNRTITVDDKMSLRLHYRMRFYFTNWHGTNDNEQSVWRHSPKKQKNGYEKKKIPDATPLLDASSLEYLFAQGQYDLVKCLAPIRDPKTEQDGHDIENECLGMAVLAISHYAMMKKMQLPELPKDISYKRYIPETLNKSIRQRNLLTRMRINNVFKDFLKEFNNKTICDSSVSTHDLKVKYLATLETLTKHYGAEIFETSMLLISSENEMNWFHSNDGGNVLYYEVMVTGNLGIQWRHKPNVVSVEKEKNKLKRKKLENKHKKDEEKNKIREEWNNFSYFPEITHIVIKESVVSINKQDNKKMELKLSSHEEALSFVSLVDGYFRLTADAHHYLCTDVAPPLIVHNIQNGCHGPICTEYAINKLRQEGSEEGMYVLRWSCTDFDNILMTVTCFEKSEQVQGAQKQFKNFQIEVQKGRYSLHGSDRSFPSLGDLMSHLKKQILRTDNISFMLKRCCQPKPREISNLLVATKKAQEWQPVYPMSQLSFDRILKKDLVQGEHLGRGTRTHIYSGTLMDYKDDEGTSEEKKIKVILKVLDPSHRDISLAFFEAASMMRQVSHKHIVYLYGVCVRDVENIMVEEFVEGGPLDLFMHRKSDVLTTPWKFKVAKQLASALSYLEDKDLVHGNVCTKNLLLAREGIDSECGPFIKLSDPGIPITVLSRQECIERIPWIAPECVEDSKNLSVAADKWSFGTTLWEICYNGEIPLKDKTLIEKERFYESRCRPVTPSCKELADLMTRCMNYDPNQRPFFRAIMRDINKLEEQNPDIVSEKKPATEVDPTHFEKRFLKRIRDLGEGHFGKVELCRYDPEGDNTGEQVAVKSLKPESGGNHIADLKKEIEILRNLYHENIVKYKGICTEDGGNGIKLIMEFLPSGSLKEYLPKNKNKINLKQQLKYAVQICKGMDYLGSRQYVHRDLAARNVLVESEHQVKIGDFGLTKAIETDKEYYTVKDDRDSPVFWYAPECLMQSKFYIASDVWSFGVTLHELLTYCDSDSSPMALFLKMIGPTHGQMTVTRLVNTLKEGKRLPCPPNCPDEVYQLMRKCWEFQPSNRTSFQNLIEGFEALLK

Row | SMILES | IC50 [1] | IC50 [2] | IC50 [3] | IC50 [4]
1 | Cn1cc(-c2cn3nccc3c(-c3cnn([C@]4(CC#N)CC5(C[C@@H](C#N)C5)C4)c3)n2)cn1 (some centres undefined) [US20250011332, Compound 2] | 123 nM | 480 nM | 2 nM | –
2 | Cn1cc(-c2cn3nccc3c(-c3cnn([C@]4(CC#N)CC5(C[C@@H](C#N)C5)C4)c3)n2)cn1 (some centres undefined) [US20250011332, Compound 4] | – | – | 20 nM | –
3 | Cn1ccc(-c2cn3nccc3c(-c3cnn(C4(CC#N)CC5(CCN(C#N)C5)C4)c3)n2)n1 (centres undefined) [US20250011332, Compound 10] | 281 nM | ≥ 10000 nM | 30 nM | 33 nM
4 | Cn1ccc(-c2cn3nccc3c(-c3cnn([C@]4(CC#N)CC5(CC[C@@H](C#N)CC5)C4)c3)n2)n1 (some centres undefined) [US20250011332, Compound 12] | 122 nM | 7740 nM | 6 nM | 138 nM
5 | Cn1ccc(-c2cn3nccc3c(-c3cnn([C@]4(CC#N)CC5(CC[C@@H](C#N)CC5)C4)c3)n2)n1 (some centres undefined) [US20250011332, Compound 13] | 233 nM | 1080 nM | 10 nM | 103 nM
6 | Cn1cc(-c2cc(-c3cnn([C@]4(CC#N)CC5(C[C@H](C#N)C5)C4)c3)c3ccnn3c2)cn1 (some centres undefined) [US20250011332, Compound 17] | 229 nM | > 1000 nM | – | 28 nM
7 | Cn1ncc(-c2cn3nccc3c(-c3cnn([C@]4(CC#N)CC5(C[C@H](C#N)C5)C4)c3)n2)c1N (some centres undefined) [US20250011332, Compound 18] | 12 nM | 93 nM | – | 3 nM
8 | Cn1ncc(-c2cn3nccc3c(-c3cnn([C@]4(CC#N)CC5(C[C@H](C#N)C5)C4)c3)n2)c1N (some centres undefined) [US20250011332, Compound 19] | 42 nM | 670 nM | 2 nM | 6 nM
9 | N#CC[C@]1(n2cc(-c3nc(-c4cc(N)[nH]n4)cn4nccc34)cn2)CC2(C[C@@H](C#N)C2)C1 (some centres undefined) [US20250011332, Compound 20] | 14 nM | 480 nM | 1 nM | –
